Results from patent US20150374646A1, “TREATMENT OF CANCER AND OTHER CONDITIONS USING A TRANSCRIPTION FACTOR MODULATOR” (C & C BIOPHARMA, LLC, priority 2013, published 2015).

Legend:
Assay in all cases: Cancer cell line growth inhibition, CellTiter-Glo (Example 3)
Format in all cases: cell-based
A498 = conditions: Homo sapiens, Renal, 72 hours, read-out: growth inhibition of various human cancer cell lines
Protocol: (§1) YT30 was tested for growth inhibition against 67 human cancer cell lines derived from diverse tissues including the National Cancer Institute human cancer cell lines (NCI-60). […] Cells in different wells were treated with various concentrations of YT30, YT86, YT88, or YT128. […] Cell viabilities were determined by the CellTiter-Glo Luminescence Cell Viability assay kit (Promega Corporation, Madison, Wis.) according to manufacturer's protocol.

A549 = conditions: Homo sapiens, Lung, 72 hours, read-out: growth inhibition of various human cancer cell lines
Protocol: as §1

BT-549 = conditions: Homo sapiens, Breast, 72 hours, read-out: growth inhibition of various human cancer cell lines
Protocol: as §1

CCRF-CEM = conditions: Homo sapiens, Leukemia, 72 hours, read-out: growth inhibition of various human cancer cell lines
Protocol: as §1

Caski = conditions: Homo sapiens, Ca-Ski, Cervical, 72 hours, read-out: growth inhibition of various human cancer cell lines
Protocol: as §1

HL60 = conditions: Homo sapiens, HL-60, Leukemia, 72 hours, read-out: growth inhibition of various human cancer cell lines
Protocol: as §1

HS 578T = conditions: Homo sapiens, Breast, 72 hours, read-out: growth inhibition of various human cancer cell lines
Protocol: as §1

HeLa = conditions: Homo sapiens, Cervical, 72 hours, read-out: growth inhibition of various human cancer cell lines
Protocol: as §1

K562 = conditions: Homo sapiens, Leukemia, 72 hours, read-out: growth inhibition of various human cancer cell lines
Protocol: as §1

MCF7 = conditions: Homo sapiens, Breast, MCF-7, 72 hours, read-out: growth inhibition of various human cancer cell lines
Protocol: as §1

MDA-MB-435 = conditions: Homo sapiens, Breast, 72 hours, read-out: growth inhibition of various human cancer cell lines
Protocol: as §1

MDA-MB-468 = conditions: Homo sapiens, Breast, 72 hours, read-out: growth inhibition of various human cancer cell lines
Protocol: as §1

MDA-MB231 = conditions: Homo sapiens; Breast, MDA-MB-231; 72 hours; read-out: growth inhibition of various human cancer cell lines
Protocol: as §1

MOLT-4 = conditions: Homo sapiens, Leukemia, 72 hours, read-out: growth inhibition of various human cancer cell lines
Protocol: as §1

OVCAR-3 = conditions: Homo sapiens, Ovarian, 72 hours, read-out: growth inhibition of various human cancer cell lines
Protocol: as §1

OVCAR-4 = conditions: Homo sapiens, Ovarian, 72 hours, read-out: growth inhibition of various human cancer cell lines
Protocol: as §1

OVCAR-5 = conditions: Homo sapiens, Ovarian, 72 hours, read-out: growth inhibition of various human cancer cell lines
Protocol: as §1

SF-268 = conditions: Homo sapiens, CNS, 72 hours, read-out: growth inhibition of various human cancer cell lines
Protocol: as §1

SF-295 = conditions: Homo sapiens, CNS, 72 hours, read-out: growth inhibition of various human cancer cell lines
Protocol: as §1

SF-539 = conditions: Homo sapiens, CNS, 72 hours, read-out: growth inhibition of various human cancer cell lines
Protocol: as §1

SN12C = conditions: Homo sapiens, Renal, 72 hours, read-out: growth inhibition of various human cancer cell lines
Protocol: as §1

SNB-19 = conditions: Homo sapiens, CNS, 72 hours, read-out: growth inhibition of various human cancer cell lines
Protocol: as §1

SR = conditions: Homo sapiens, Leukemia, 72 hours, read-out: growth inhibition of various human cancer cell lines
Protocol: as §1

T-47D = conditions: Homo sapiens, T47D, Breast, 72 hours, read-out: growth inhibition of various human cancer cell lines
Protocol: as §1

TK-10 = conditions: Homo sapiens, Renal, 72 hours, read-out: growth inhibition of various human cancer cell lines
Protocol: as §1

U251 = conditions: Homo sapiens, U-251, CNS, 72 hours, read-out: growth inhibition of various human cancer cell lines
Protocol: as §1

UO-31 = conditions: Homo sapiens, Renal, 72 hours, read-out: growth inhibition of various human cancer cell lines
Protocol: as §1

siHa = conditions: Homo sapiens, Cervical, 72 hours, read-out: growth inhibition of various human cancer cell lines
Protocol: as §1

786-0 = conditions: Homo sapiens, Renal, 72 hours, read-out: growth inhibition of various human cancer cell lines
Protocol: as §1

DU-145 = conditions: Homo sapiens, Prostate, 72 hours, read-out: growth inhibition of various human cancer cell lines
Protocol: as §1

NCI/ADR-RES = conditions: Homo sapiens, Breast, 72 hours, read-out: growth inhibition of various human cancer cell lines
Protocol: as §1

SNB-75 = conditions: Homo sapiens, CNS, 72 hours, read-out: growth inhibition of various human cancer cell lines
Protocol: as §1

IC50 (A498) [µM] | IC50 (BT-549) [µM] | IC50 (CCRF-CEM) [µM] | IC50 (Caski) [µM] | IC50 (HL60) [µM] | IC50 (HS 578T) [µM] | IC50 (HeLa) [µM] | IC50 (K562) [µM] | IC50 (MCF7) [µM] | IC50 (MDA-MB-435) [µM] | IC50 (MDA-MB-468) [µM] | IC50 (MDA-MB231) [µM] | IC50 (MOLT-4) [µM] | IC50 (OVCAR-3) [µM] | IC50 (OVCAR-4) [µM] | IC50 (OVCAR-5) [µM] | IC50 (SF-268) [µM] | IC50 (SF-295) [µM] | IC50 (SF-539) [µM] | IC50 (SN12C) [µM] | SMILES | further results
9.55 | 13.5 | 3.17 | 11.3 | 4.81 | 8.85 | 6.74 | 5.64 | 5.86 | 8.31 | 7.04 | 5.81 | 3.09 | 7.2 | 14.3 | 5.99 | 14.9 | 7.41 | 7.76 | 8 | Nc1ccccc1NC(=O)CCCCCNC(=O)c1cc2ccccc2[nH]1 [YT86] | IC50 (A549): 10.9 µM; IC50 (SNB-19): 14.2 µM; IC50 (SR): 6.4 µM; IC50 (T-47D): 12.5 µM; IC50 (TK-10): 17.2 µM; IC50 (U251): 4.47 µM; IC50 (UO-31): 7.51 µM; IC50 (siHa): 8.78 µM
9.54 | 10.6 | 2.65 | 14.2 | 6.97 | 5.67 | 6.02 | 5.74 | 3.8 | 7.59 | 7.42 | 4.28 | 3 | 6.57 | 11.9 | 5.66 | 14.4 | 6.83 | 6.91 | 7.25 | Nc1ccccc1NC(=O)CCCCCNC(=O)c1ccc(-c2ccccc2)o1 [YT88] | IC50 (786-0): 13.8 µM; IC50 (DU-145): 16.2 µM; IC50 (NCI/ADR-RES): 14.2 µM; IC50 (SNB-19): 9.61 µM; IC50 (SNB-75): 11.2 µM; IC50 (SR): 5.89 µM; IC50 (T-47D): 15 µM; IC50 (TK-10): 13.4 µM; IC50 (U251): 4.38 µM; IC50 (UO-31): 9.53 µM; IC50 (siHa): 9.07 µM
7.46 | 9.14 | 4.24 | 10.9 | 5.86 | 8.39 | 6.58 | 5.03 | 8.52 | 9.74 | 11.2 | 6.75 | 5.08 | 6.91 | 13.6 | 6.87 | 13.4 | 8.61 | 7.61 | 7.11 | Nc1ccccc1NC(=O)CCCCCCNC(=O)c1cc2ccccc2[nH]1 [YT128] | IC50 (786-0): 9.47 µM; IC50 (A549): 12.8 µM; IC50 (NCI/ADR-RES): 14.6 µM; IC50 (SNB-19): 13.8 µM; IC50 (SR): 5.96 µM; IC50 (T-47D): 12.6 µM; IC50 (TK-10): 12.1 µM; IC50 (U251): 5 µM; IC50 (UO-31): 6.58 µM; IC50 (siHa): 9.7 µM
